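Test compounds were applied to cells in 96-well plates for 48 hours at 5 doses. TGI: total growth inhibition.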
Columns and labels:
Test in all cases: DTP human tumour cell line panel, 48 h
HCC-2998 colon = tested on: HCC-2998 colon
UACC-257 melanoma = tested on: UACC-257 melanoma
K-562 leukemia = tested on: K-562 leukemia
SNB-78 CNS = tested on: SNB-78 CNS
ACHN renal = tested on: ACHN renal
LXFL 529 NSCLC = tested on: LXFL 529 NSCLC
HCT-116 colon = tested on: HCT-116 colon
HOP-92 NSCLC = tested on: HOP-92 NSCLC
DMS 273 small cell lung = tested on: DMS 273 small cell lung
RXF 393 renal = tested on: RXF 393 renal
A498 renal = tested on: A498 renal
SR leukemia = tested on: SR leukemia
EKVX NSCLC = tested on: EKVX NSCLC
RXF-631 renal = tested on: RXF-631 renal
NCI-H226 lung = tested on: NCI-H226 lung
SF-539 CNS = tested on: SF-539 CNS
HT29 colon = tested on: HT29 colon
SW-620 colon = tested on: SW-620 colon
IGROV1 ovarian = tested on: IGROV1 ovarian
SK-MEL-2 melanoma = tested on: SK-MEL-2 melanoma
OVCAR-4 ovarian = tested on: OVCAR-4 ovarian
NCI-H460 lung = tested on: NCI-H460 lung
HOP-62 NSCLC = tested on: HOP-62 NSCLC
SK-MEL-5 melanoma = tested on: SK-MEL-5 melanoma
HL-60(TB) leukemia = tested on: HL-60(TB) leukemia
SK-OV-3 ovarian = tested on: SK-OV-3 ovarian
SN12C renal = tested on: SN12C renal
MALME-3M melanoma = tested on: MALME-3M melanoma
OVCAR-8 ovarian = tested on: OVCAR-8 ovarian
SK-MEL-28 melanoma = tested on: SK-MEL-28 melanoma
SF-295 CNS = tested on: SF-295 CNS
OVCAR-3 ovarian = tested on: OVCAR-3 ovarian
COLO 205 colon = tested on: COLO 205 colon
LOX IMVI melanoma = tested on: LOX IMVI melanoma
OVCAR-5 ovarian = tested on: OVCAR-5 ovarian
RPMI-8226 leukemia = tested on: RPMI-8226 leukemia
UO-31 renal = tested on: UO-31 renal
U251 CNS = tested on: U251 CNS
SNB-19 CNS = tested on: SNB-19 CNS
KM20L2 colon = tested on: KM20L2 colon
A549 NSCLC = tested on: A549 NSCLC
HCT-15 colon = tested on: HCT-15 colon
CAKI-1 renal = tested on: CAKI-1 renal
SF-268 CNS = tested on: SF-268 CNS
UACC-62 melanoma = tested on: UACC-62 melanoma
MOLT-4 leukemia = tested on: MOLT-4 leukemia
DLD-1 colon = tested on: DLD-1 colon
786-0 renal = tested on: 786-0 renal
KM12 colon = tested on: KM12 colon
NCI-H522 lung = tested on: NCI-H522 lung
HOP-18 NSCLC = tested on: HOP-18 NSCLC
DMS 114 small cell lung = tested on: DMS 114 small cell lung
NCI-H23 lung = tested on: NCI-H23 lung
TK-10 renal = tested on: TK-10 renal
SNB-75 CNS = tested on: SNB-75 CNS
XF 498 CNS = tested on: XF 498 CNS
M14 melanoma = tested on: M14 melanoma

## CCCCOC/N=C(/N)NC#N
HCC-2998 colon
  TGI: > 100 µM
UACC-257 melanoma
  TGI: > 100 µM
K-562 leukemia
  TGI: > 100 µM
SNB-78 CNS
  TGI: > 100 µM
ACHN renal
  TGI: > 100 µM
LXFL 529 NSCLC
  TGI: > 100 µM
HCT-116 colon
  TGI: > 100 µM
HOP-92 NSCLC
  TGI: > 100 µM
DMS 273 small cell lung
  TGI: > 100 µM
RXF 393 renal
  TGI: > 100 µM
A498 renal
  TGI: > 100 µM
SR leukemia
  TGI: 63.1 µM
EKVX NSCLC
  TGI: > 100 µM
RXF-631 renal
  TGI: > 100 µM
NCI-H226 lung
  TGI: > 100 µM
SF-539 CNS
  TGI: > 100 µM
HT29 colon
  TGI: > 100 µM
SW-620 colon
  TGI: 34.3 µM
IGROV1 ovarian
  TGI: > 100 µM
SK-MEL-2 melanoma
  TGI: > 100 µM
OVCAR-4 ovarian
  TGI: > 100 µM
NCI-H460 lung
  TGI: > 100 µM
HOP-62 NSCLC
  TGI: > 100 µM
SK-MEL-5 melanoma
  TGI: > 100 µM
HL-60(TB) leukemia
  TGI: > 100 µM
SK-OV-3 ovarian
  TGI: > 100 µM
SN12C renal
  TGI: > 100 µM
MALME-3M melanoma
  TGI: > 100 µM
OVCAR-8 ovarian
  TGI: > 100 µM
SK-MEL-28 melanoma
  TGI: > 100 µM
SF-295 CNS
  TGI: > 100 µM
OVCAR-3 ovarian
  TGI: > 100 µM
COLO 205 colon
  TGI: > 100 µM
LOX IMVI melanoma
  TGI: 90.1 µM
OVCAR-5 ovarian
  TGI: > 100 µM
RPMI-8226 leukemia
  TGI: > 100 µM
UO-31 renal
  TGI: > 100 µM
U251 CNS
  TGI: > 100 µM
SNB-19 CNS
  TGI: > 100 µM
KM20L2 colon
  TGI: > 100 µM
A549 NSCLC
  TGI: > 100 µM
HCT-15 colon
  TGI: 43.8 µM
CAKI-1 renal
  TGI: > 100 µM
SF-268 CNS
  TGI: > 100 µM
UACC-62 melanoma
  TGI: > 100 µM
MOLT-4 leukemia
  TGI: > 100 µM
DLD-1 colon
  TGI: > 100 µM
786-0 renal
  TGI: > 100 µM
KM12 colon
  TGI: > 100 µM
NCI-H522 lung
  TGI: > 100 µM
HOP-18 NSCLC
  TGI: > 100 µM
DMS 114 small cell lung
  TGI: > 100 µM
NCI-H23 lung
  TGI: > 100 µM
TK-10 renal
  TGI: > 100 µM
SNB-75 CNS
  TGI: > 100 µM
XF 498 CNS
  TGI: > 100 µM
M14 melanoma
  TGI: > 100 µM

From PubChem BioAssay (NCI)
